Like-named read-outs stand apart in the source and are kept apart here.
Experiment: Pharmacokinetics (plasma Cmax, AUC, Tmax, t1/2, trough concentrations)
Format: in vivo, human
Conditions: for Trough Plasma Concentration, Median / concentration at 7 day: Day 7; for concentration at 7 day / concentration at 28 day / concentration at 56 day / AUC(0-t) / Cmax: human, plasma, oral; for concentration at 28 day: Day 28; for concentration at 56 day: Day 56; for AUC(0-t) / Cmax: steady state Day 28
Text: Pharmacokinetic endpoints of this study are PK parameters, including, of area under the plasma concentration versus time curve (AUC), maximum plasma concentration (Cmax), time to maximum concentration (Tmax), and half-life (t1/2) will be summarized descriptively for Randomization (baseline) and Study Weeks 1, 4, and 8
PK/PD Analysis Set includes all subjects in the SAF who have sufficient data available for the analysis of pharmacokinetic and pharmacodynamic measurements. In the analyses based on PKPD, subjects will be analyzed according to the actual treatment received.

[1] = 12.5 mg, 12.5 mg BID, read-out: Trough Plasma Concentration, Mean (SD)
[2] = 12.5 mg, 12.5 mg QD, read-out: Trough Plasma Concentration, Mean (SD)
[3] = 12.5 mg, 12.5 mg BID, read-out: Trough Plasma Concentration, Median
[4] = 12.5 mg, 12.5 mg QD, read-out: Trough Plasma Concentration, Median
[5] = 25 mg, 25 mg BID, read-out: Trough Plasma Concentration, Mean (SD)
[6] = 25 mg, 25 mg BID, read-out: Trough Plasma Concentration, Median
[7] = 50 mg, 50 mg QD, read-out: Trough Plasma Concentration, Mean (SD)
[8] = 50 mg, 50 mg QD, read-out: Trough Plasma Concentration, Median

CC(=O)N[C@H]1CC[C@H](NC(=O)CN2CCN(c3nncc(-c4ccc(C)cc4)n3)CC2)CC1 [Compound A HBr]
Trough Plasma Concentration, Median (12.5 mg BID): 26.1 ng/mL | Trough Plasma Concentration, Median (12.5 mg QD): 5.52 ng/mL | Trough Plasma Concentration, Median (25 mg BID): 52 ng/mL | Trough Plasma Concentration, Median (50 mg QD): 12.1 ng/mL | concentration at 7 day [1]: 0.0523 µg/mL | concentration at 7 day [2]: 0.0116 µg/mL | concentration at 28 day (12.5 mg, 12.5 mg BID, read-out: Trough Plasma Concentration, Geo Mean): 0.0107 µg/mL | concentration at 28 day [1]: 0.0334 µg/mL | concentration at 28 day [3]: 0.0273 µg/mL | concentration at 28 day (12.5 mg, 12.5 mg QD, read-out: Trough Plasma Concentration, Geo Mean): 0.00577 µg/mL | concentration at 28 day [2]: 0.00791 µg/mL | concentration at 28 day [4]: 0.0041 µg/mL | concentration at 56 day (12.5 mg, 12.5 mg BID, read-out: Trough Plasma Concentration, Geometric Mean): 0.0185 µg/mL | concentration at 56 day [1]: 0.0404 µg/mL | concentration at 56 day [3]: 0.0216 µg/mL | concentration at 56 day (12.5 mg, 12.5 mg QD, read-out: Trough Plasma Concentration, Geometric Mean): 0.0221 µg/mL | concentration at 56 day [2]: 0.0399 µg/mL | concentration at 56 day [4]: 0.0076 µg/mL | AUC(0-t) (12.5 mg, 12.5 mg BID, read-out: AUC0-24, Geo Mean): 0.94 µg·h/mL | AUC(0-t) (12.5 mg, 12.5 mg BID, read-out: AUC0-24, Mean (SD)): 0.992 µg·h/mL | AUC(0-t) (12.5 mg, 12.5 mg BID, read-out: AUC0-24, Median): 0.922 µg·h/mL | Cmax (12.5 mg, 12.5 mg BID, read-out: Cmax, Median): 0.137 µg/mL | AUC(0-t) (12.5 mg, 12.5 mg QD, read-out: AUC0-24, Geo Mean): 0.726 µg·h/mL | AUC(0-t) (12.5 mg, 12.5 mg QD, read-out: AUC0-24, Mean (SD)): 1.02 µg·h/mL | AUC(0-t) (12.5 mg, 12.5 mg QD, read-out: AUC0-24, Median): 0.498 µg·h/mL | Cmax (12.5 mg, 12.5 mg QD, read-out: Cmax, Geo Mean): 0.12 µg/mL | Cmax (12.5 mg, 12.5 mg QD, read-out: Cmax, Mean (SD)): 0.153 µg/mL | Cmax (12.5 mg, 12.5 mg QD, read-out: Cmax, Median): 0.0949 µg/mL | concentration at 7 day [5]: 0.0942 µg/mL | concentration at 28 day (25 mg, 25 mg BID, read-out: Trough Plasma Concentration, Geo Mean): 0.0621 µg/mL | concentration at 28 day [5]: 0.109 µg/mL | concentration at 28 day [6]: 0.0563 µg/mL | concentration at 56 day (25 mg, 25 mg BID, read-out: Trough Plasma Concentration, Geometric Mean): 0.046 µg/mL | concentration at 56 day [5]: 0.104 µg/mL | concentration at 56 day [6]: 0.0323 µg/mL | AUC(0-t) (25 mg, 25 mg BID, read-out: AUC0-24, Geo Mean): 1.64 µg·h/mL | AUC(0-t) (25 mg, 25 mg BID, read-out: AUC0-24, Mean (SD)): 1.76 µg·h/mL | AUC(0-t) (25 mg, 25 mg BID, read-out: AUC0-24, Median): 1.67 µg·h/mL | Cmax (25 mg, 25 mg BID, read-out: Cmax, Geo Mean): 0.325 µg/mL | Cmax (25 mg, 25 mg BID, read-out: Cmax, Median): 0.335 µg/mL | concentration at 7 day [7]: 0.0931 µg/mL | concentration at 28 day (50 mg, 50 mg QD, read-out: Trough Plasma Concentration, Geo Mean): 0.0468 µg/mL | concentration at 28 day [7]: 0.0874 µg/mL | concentration at 28 day [8]: 0.0209 µg/mL | concentration at 56 day (50 mg, 50 mg QD, read-out: Trough Plasma Concentration, Geometric Mean): 0.0381 µg/mL | concentration at 56 day [7]: 0.155 µg/mL | concentration at 56 day [8]: 0.018 µg/mL | AUC(0-t) (50 mg, 50 mg QD, read-out: AUC0-24, Geo Mean): 3.23 µg·h/mL

Source: patent publication US20260053811A1, “METHODS OF TREATING HYPERTENSION IN OBESE SUBJECTS” (Mineralys Therapeutics, Inc., priority 2022, published 2026)
